# Where two headings read alike, the source gives them in different places.
# Assays:
# [1] = test system: MYO-29 cell line; test: Carnosine addition to 1 L bioreactor fed-batch culture, MYO-29 cell line; type: cell-based; conditions: 20 mM carnosine added day 4
# Experimental: Five bioreactors were inoculated with 0.9×10^6 cells/ml with a 1 L working volume of a MYO-29 cell line in a serum free inoculation medium. All the bioreactors were fed 5% (v/v) of a feed medium on days 3, 5, 7, and 12 of a 14-day run. A day 10 feed of 5% (v/v) of the feed medium was added to two of the control bioreactors and one containing carnosine. The conditions of the bioreactors were held at a temperature of 37° C., a pH of 7.00, and a dissolved oxygen level at 30% air saturation.
# The bioreactors were harvested on day 14 of the production run. Samples were taken throughout the run to monitor the progress of the cell culture medium. The controls performed as expected.
# [2] = test system: Chinese Hamster Ovary (CHO) Cell Line Producing Recombinant TNFR Fusion Protein; test: Carnosine in 1 L bioreactor culture of cells producing recombinant TNFR fusion protein; type: cell-based; conditions: 20 mM carnosine added day 2
# Experimental: A TNFR fusion protein cell line was cultured in a serum free production medium in a bioreactor with a 1 L working volume. On day 1, the temperature was shifted from 37° C. to 29.5° C., sodium butyrate was added to a final concentration of 1 mM, and HMBA was added to a final concentration of 3 mM. The pH of the bioreactor was held at 6.95 and the dissolved oxygen was at 60% air saturation. On day 2, carnosine was added to the culture to a final concentration of 20 mM. The cells were supplemented with a 5% (v/v) feed medium on days 3, 6, 8, and 10. The cell culture medium was harvested on day 12. Four separate control bioreactors were run in which CHO cells expressing a recombinant TNFR fusion protein were grown under conditions identical to those described above, except that carnosine was not added on day 2. The control data in FIGS. 4-11 is the average of the four control bioreactor runs.
# [3] = test system: MYO-29 cell line; test: Dish scale carnosine experiments, MYO-29 cell line culture; type: cell-based; conditions: 10 mM carnosine added to dishes on day 4, 7 or 10; harvested day 12; vs no carnosine
# Experimental: A MYO-29 cell line was cultured in a serum free production medium in a bioreactor with a 1 L working volume and was temperature shifted from 37° C. to 31° C. on day 4. The pH of the bioreactor was held at 7.00 and the dissolved oxygen was at 30% air saturation. Cell culture medium was then taken from the bioreactor on day 4, day 7, and day 10 and put into culture dishes with an 8 ml working volume and placed into a 31° C. incubator, where the dish cultures were cultured until day 12. The cells were supplemented with a feed medium on days 5 and 7. On day 5, 10% (v/v) of feed medium was added to the cell cultures and on day 7, 5% (v/v) of feed medium was added to the cell cultures. 10 mM of carnosine was added on day 4, day 7, and day 10, respectively, to the dishes and the cell culture medium was harvested on day 12.
# [4] = test system: human diploid fibroblasts and human fetal lung (primary cell lines); conditions: 20 mM in culture media; cited from earlier work
# [5] = test system: MYO-29 cell line; test: Different concentrations of carnosine in 1 L bioreactor culture, MYO-29 cell line; type: cell-based
# Experimental: Four bioreactors were inoculated with 0.4×10^6 cells/ml with a 1 L working volume of a MYO-29 cell line in a serum free inoculation medium. All the bioreactors were all fed 5% (v/v) of a feed medium on day 7 of the 14-day run. The conditions of the bioreactor were held at a temperature of 37° C., a pH of 7.00, and a dissolved oxygen level at 30% air saturation.
# All cells were cultured for four days at which point the temperature was shifted in all of the bioreactors to 31° C. […] All bioreactors were harvested on day 12 of the production run. Samples were taken throughout the run to monitor the progress of the cell culture medium. The controls performed generally as expected, except one control had slightly lower daily viabilities than previously seen.
# [6] = test system: human or rodent transformed and neoplastic cells; conditions: cited from earlier work
# [7] = addition of the chemical agent to cell culture; cited from earlier work
# [8] = vs average of 4 control bioreactors
structure (smiles),measurement,setting,value
NCCC(=O)N[C@@H](Cc1cnc[nH]1)C(=O)O [carnosine],daily cell viability upon being harvested,"[1]; harvest day 14, compared to bioreactors without carnosine",higher
same,titer at the time of harvest,"[1]; harvest day 14, vs controls",higher titer
same,cumulative specific cellular productivity,[1]; vs controls,better
same,high molecular weight aggregates,[1]; vs controls,decrease
same,amount of misfolded and/or aggregated TNFR fusion protein,"[2]; hydrophobic interaction chromatography (HIC), vs controls",significantly reduced
same,amount of high molecular weight (HMW) aggregates,"[2]; size exclusion chromatography (SEC), vs controls",significantly reduced
same,cell growth (viable cell density),[2]; [8],not significantly affected
same,cell viability,[2]; [8],not significantly affected
same,"glycosylation of the produced TNFR fusion protein (total sialylation, sialylated N-linked oligosaccharides)",[2]; vs controls,not significantly different
same,product titer,[2]; vs controls,increased
same,specific cellular productivity,[2]; vs controls,increased
same,acidic peaks,[3],decreasing
same,high molecular weight aggregates,[3],decreasing
same,lifespan of cells,[4],extend the lifespan
same,high molecular weight aggregates,"[5]; 20 mM or 40 mM carnosine added day 4, compared to the controls",decrease
same,daily titer,"[5]; 20 mM or 40 mM carnosine added day 4, compared with one of the controls",similar
same,daily cell viability upon being harvested,"[5]; 20 mM or 40 mM carnosine added day 4, harvest day 12, compared to two control bioreactors",higher viability
same,daily viable cell density,"[5]; 20 mM or 40 mM carnosine added day 4, vs controls",fairly similar with the exception of the bioreactor with 4 mM of carnosine
same,cumulative specific cellular productivity,[5]; 40 mM carnosine added day 4,higher
same,cytotoxicity,"[6]; Dulbecco's Modified Eagle's Medium (DMEM), contains 1 mM pyruvate",not
same,cytotoxicity,"[6]; Minimal Essential Medium (MEM), lower glucose levels",cytotoxic
CCCC(=O)[O-].[Na+] [sodium butyrate],cell growth and viable cell number,[7],cell growth ceases and the viable cell number decreases

# Source: US12054762B2, “Methods of protein production using anti-senescence compounds” (WYETH LLC, priority 2007, dated 2024)
